The source of these data is ChEMBL document CHEMBL1201862, “PubChem BioAssay data set” (2004).

SMILES strings stand for the structures.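 Dose response: 5 concentrations. Exposure: 48 h. Format: 96-well plates. Endpoint: linear interpolation; highest concentration if not reached. GI50 is the concentration that inhibits growth by half.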 Calls of active or inactive are those of the source. Cut-off read from the data, not from the text of the source: active = GI50 up to about 1.1 µM and inactive = higher. Where a SMILES comes first, the peptide text is derived from it. The star is where a group is joined. Cbz = O=C(OCc1ccccc1)*; Boc = CC(C)(C)OC(=O)*; OSu = O=C1CCC(=O)N1O*; Bn = c1ccc(C*)cc1 A value given as a limit tells only on which side of the number the result lay.

Among the test systems are A498; A549; BT-549; EKVX; HL-60; HOP-62; Hs-578T; KM12; MCF7; OVCAR-8; PC-3; SN12C; U-251; UO-31; CAKI-1; MDA-MB-435; NCI/ADR-RES; OVCAR-4; SF-295.
What all share (assay): inhibition of tumour cell growth, NCI panel, 48 h

`CC(NC(=O)OC(C)(C)C)C(=O)NC(Cc1ccccc1)C(=O)NCC(=O)Oc1c(Cl)c(Cl)c(Cl)c(Cl)c1Cl` (centres undefined): the GI50 with A498 was 21.2 µM (inactive); in the experiment with A549 it was 19.5 µM (inactive); in the experiment on BT-549 it was 23.5 µM (inactive); in the experiment on EKVX it was 17.8 µM (inactive); in the experiment with HL-60 it was 24.7 µM (inactive); in the experiment with HOP-62, 18.7 µM (inactive). Also, the GI50 was 37.5 µM (inactive) with Hs-578T; 25 µM (inactive) in the experiment on KM12; 21.9 µM (inactive) with MCF7; 19.6 µM (inactive) with OVCAR-8; 20.3 µM (inactive) in the experiment on PC-3; 14.5 µM (inactive) in the experiment with SN12C. In addition, the GI50 was 19.7 µM (inactive) with U-251 and 14.2 µM (inactive) in the experiment on UO-31.
On to `CCC(NC(C)c1ccccc1)C(=O)c1ccc(OCc2ccccc2)c(OCc2ccccc2)c1` (centres undefined), for which the GI50 in the experiment on A549, in the experiment with BT-549, with CAKI-1, with EKVX, with HL-60 and in the experiment on HOP-62 was > 100 µM (inactive) in each case. Further, the GI50 with Hs-578T, in the experiment with KM12, with MCF7, with MDA-MB-435, in the experiment with NCI/ADR-RES and in the experiment with OVCAR-4 was > 100 µM (inactive) throughout. Also, the GI50 in the experiment with OVCAR-8, in the experiment on PC-3, in the experiment on SF-295, in the experiment on SN12C, in the experiment with U-251 and in the experiment on UO-31 was > 100 µM (inactive) each time.
Take `Cc1ccccc1/N=N/c1c(O)ccc2ccccc12`: the GI50 in the experiment on A549 was 69.3 µM (inactive); in the experiment with BT-549, > 100 µM (inactive); with CAKI-1 it was > 100 µM (inactive); in the experiment with EKVX it was 47.6 µM (inactive); in the experiment with HL-60, > 100 µM (inactive); with HOP-62, 48.1 µM (inactive). Also, the GI50 in the experiment on Hs-578T is 49.3 µM (inactive); in the experiment on KM12, 16.4 µM (inactive); in the experiment with MDA-MB-435, > 100 µM (inactive); in the experiment with NCI/ADR-RES, > 100 µM (inactive); in the experiment with OVCAR-4 it was 70.5 µM (inactive); in the experiment with OVCAR-8 it was > 100 µM (inactive). Also, the GI50 in the experiment on PC-3 was > 100 µM (inactive); in the experiment on SF-295, 77.1 µM (inactive); in the experiment on SN12C, > 100 µM (inactive); in the experiment on U-251, 70.1 µM (inactive); in the experiment on UO-31, > 100 µM (inactive).
As for `Cc1nn2c(C(=O)N/N=C/c3ccccc3O)c(C)nc2s1`, the GI50 in the experiment on A498 was 61.5 µM (inactive); in the experiment on A549 it was > 100 µM (inactive); with BT-549 it was > 100 µM (inactive); in the experiment with CAKI-1 it was > 100 µM (inactive); in the experiment with EKVX it was > 100 µM (inactive); in the experiment with HL-60, 31.8 µM (inactive). Further, the GI50 in the experiment on HOP-62 is > 100 µM (inactive); in the experiment on Hs-578T it was > 100 µM (inactive); with KM12, > 100 µM (inactive); in the experiment on MCF7, 30.8 µM (inactive); in the experiment with MDA-MB-435, > 100 µM (inactive); in the experiment on NCI/ADR-RES, 61.4 µM (inactive). For the same compound, the GI50 with OVCAR-4 was > 100 µM (inactive); with OVCAR-8, > 100 µM (inactive); with SF-295, 85.9 µM (inactive); with SN12C, 73.1 µM (inactive); with U-251, 38 µM (inactive); in the experiment with UO-31 it was > 100 µM (inactive).
Take `CCOC1CCN(C(=O)c2ccccc2)O1` (centres undefined): the GI50 in the experiment with A549, in the experiment on BT-549, in the experiment with CAKI-1, in the experiment on EKVX, in the experiment on HL-60 and with HOP-62 was > 10 µM (inactive) each time. Further, the GI50 in the experiment with Hs-578T, in the experiment on MCF7, in the experiment on MDA-MB-435, in the experiment with NCI/ADR-RES, in the experiment on OVCAR-4 and in the experiment with OVCAR-8 was > 10 µM (inactive) each time. Besides, the GI50 with PC-3, with SF-295, with SN12C and in the experiment with UO-31 was > 10 µM (inactive) throughout.
`NNC(=O)c1cc(=O)[nH][nH]1`: the GI50 in the experiment on A549, in the experiment on BT-549, in the experiment on CAKI-1, in the experiment on EKVX, in the experiment with Hs-578T and in the experiment with KM12 was > 100 µM (inactive) each time. Further, the GI50 in the experiment with MCF7, in the experiment on MDA-MB-435, in the experiment with NCI/ADR-RES, in the experiment on OVCAR-4, in the experiment on OVCAR-8 and in the experiment on PC-3 was > 100 µM (inactive) throughout. For the same compound, the GI50 in the experiment on SF-295, in the experiment on SN12C, with U-251 and in the experiment on UO-31 was > 100 µM (inactive) throughout.
In the case of `Cc1cccc(CP(Cc2cccc(C)c2)CC2(Cp3c4ccccc4c4ccccc43)COC2)c1`, the GI50 in the experiment with A498 was 7.41 µM (inactive); with A549, 0.206 µM (active); in the experiment on BT-549, 3.96 µM (inactive); in the experiment on CAKI-1, 9.75 µM (inactive); with EKVX, 14.1 µM (inactive); with HL-60 it was 0.332 µM (active). The GI50 with HOP-62 was 66.7 µM (inactive); in the experiment on KM12, 2.51 µM (inactive); with MCF7 it was 3.15 µM (inactive); in the experiment with MDA-MB-435, 5.71 µM (inactive); with NCI/ADR-RES it was 53.7 µM (inactive); in the experiment on OVCAR-4, 13.3 µM (inactive). Further, the GI50 with OVCAR-8 is 1.78 µM (inactive); with PC-3, 0.935 µM (active); with SF-295, 2.18 µM (inactive); with SN12C, 4.41 µM (inactive); with U-251, 0.47 µM (active); in the experiment with UO-31, 16.3 µM (inactive).
For `CC(=O)c1c(O)ccc2c1c1c(n2C)C(=O)c2ccccc2C1=O`, the GI50 was 2.84 µM (inactive) in the experiment on A498; 5.66 µM (inactive) with A549; > 100 µM (inactive) in the experiment with BT-549; 5.24 µM (inactive) with CAKI-1; 3.24 µM (inactive) in the experiment on EKVX; > 100 µM (inactive) in the experiment on HL-60. Further, the GI50 was 6.53 µM (inactive) in the experiment with HOP-62; 2.82 µM (inactive) with Hs-578T; 1.69 µM (inactive) with MCF7; 5.3 µM (inactive) in the experiment on OVCAR-8; 6.92 µM (inactive) with SF-295; 4.63 µM (inactive) in the experiment with U-251.
In the case of `O=S(=O)(O)c1cc(/N=N/c2c(O)ccc3ccccc23)c2c(S(=O)(=O)O)cccc2c1`, the GI50 with A549, in the experiment on BT-549, in the experiment on CAKI-1, with EKVX, with HL-60 and with HOP-62 was > 100 µM (inactive) each time. For the same compound, the GI50 in the experiment with Hs-578T, in the experiment with KM12, in the experiment with MCF7, with MDA-MB-435, in the experiment on NCI/ADR-RES and with OVCAR-4 was > 100 µM (inactive) each time. The GI50 in the experiment with OVCAR-8, in the experiment with PC-3, in the experiment with SF-295, in the experiment on U-251 and in the experiment on UO-31 was > 100 µM (inactive) throughout.
`CNC(=O)NS(=O)(=O)c1ccc(C)cc1.NS(=O)O`: the GI50 in the experiment on A549, in the experiment on BT-549, with HL-60, with HOP-62, with Hs-578T and in the experiment with KM12 was > 100 µM (inactive) in each case. In addition, the GI50 in the experiment with MCF7, in the experiment on NCI/ADR-RES, in the experiment on OVCAR-4, with OVCAR-8, in the experiment on PC-3 and in the experiment with SF-295 was > 100 µM (inactive) in each case. In addition, the GI50 in the experiment with SN12C, with U-251 and in the experiment on UO-31 was > 100 µM (inactive) in each case.
As for `CC(C)(C)OC(=O)NC(Cc1ccc(OCc2ccccc2)cc1)C(=O)NC(CCCCNC(=O)OCc1ccccc1)C(=O)ON1C(=O)CCC1=O` (centres undefined) (Boc-Tyr(Bn)-Lys(Cbz)-OSu; configuration not given here), the GI50 in the experiment on A498 is 48.3 µM (inactive); in the experiment on A549, 34.1 µM (inactive); with BT-549, 21.6 µM (inactive); in the experiment with EKVX it was 42.6 µM (inactive); with HL-60, 22 µM (inactive); in the experiment on HOP-62 it was 19.5 µM (inactive). Moreover, the GI50 was 20.3 µM (inactive) with Hs-578T; 23.9 µM (inactive) in the experiment with KM12; 19.8 µM (inactive) in the experiment on MCF7; 20.8 µM (inactive) in the experiment with OVCAR-8; 22.1 µM (inactive) in the experiment with PC-3; 16.7 µM (inactive) with SN12C. Moreover, the GI50 in the experiment with U-251 is 17 µM (inactive); with UO-31, 21.6 µM (inactive).
On to `O[C@H]1[C@H](O)[C@@H](O)[C@H](O)[C@@H](O)[C@H]1O` [INOSITOL], for which the GI50 in the experiment on A498, with A549, in the experiment with BT-549, with HOP-62, with Hs-578T and in the experiment on MCF7 was > 1000 µM (inactive) in each case. The GI50 with MDA-MB-435, in the experiment on NCI/ADR-RES, in the experiment with OVCAR-4, with OVCAR-8, with PC-3 and with SN12C was > 1000 µM (inactive) in each case. For the same compound, the GI50 in the experiment on U-251 and in the experiment on UO-31 was > 1000 µM (inactive) each time.
